Source: patent publication US11459327B1, “Cycloalkyl and hetero-cycloalkyl inhibitors, preparation methods therefor, and use thereof” (Suzhou Zelgen Biopharmaceuticals Co., Ltd., priority 2019, dated 2022)

Assays:
[1] = Pharmacokinetics test evaluation in rats, plasma concentration by LC/MS/MS; type: in vivo; conditions: male SD rats, 15 mg/kg by gavage, n = 4, mean
Protocol: Male SD rats, with a body weight of about 220 g, were given 15 mg/kg solution of the compound of the invention or the control compound by gavage after overnight fasting [10% […] (captisol) and 50 mM sodium citrate (pH 5) as vehicle]. Blood samples were collected at 0.5, 1.0, 2.0, 4.0, 6.0, 8.0, 12.0 and 24 hours after the compound was administrated, and the concentrations of the compound or the control compound in plasma were determined by LC/MS/MS.
The plasma concentration-time curves of Examples 13 and 14 and control compounds were shown in FIG. 1, and the pharmacokinetics parameters were shown in Table 2: […]

[2] = system: NCI-H358(KRAS^G12C mutation) cells; assay: Cell assay of antiproliferative activity (Celltiter-Glo, 5 days) against NCI-H358 cells; type: cell-based; conditions: 5 days incubation
Outline: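 Cells plated overnight, then given a 10-point compound series (stock dilutions 50 μM to 0.003 μM, 100 nL added per well) and grown 5 days. Luminescence read after 10 min shaking at room temperature. IC50 from curve fitting.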

[3] = system: A549(KRAS^G12S mutation) cells; assay: Cell assay of antiproliferative activity (Celltiter-Glo, 5 days) against A549 cells; type: cell-based; conditions: 5 days incubation
Protocol: Cell assay of antiproliferative activity of compounds against NCI-H358(KRAS^G12C mutation) and A549(KRAS^G12S mutation) cells.
40 μl phosphate buffer was added to the outer wells of the 384 microplate, and 40 μl cell suspension to be tested was added to the other wells. Then the microplate was incubated in a carbon dioxide incubator overnight.
The compounds to be tested were gradiently diluted, each compound was performed 10 concentration gradients (diluted from 50 μM to 0.003 μM) and added 100 nL to the corresponding wells in the microplate. After addition, 40 μl of phosphate buffer was added to each well in rows A and P and columns 1 and 24, and then the microplate was incubated in a carbon dioxide incubator for 5 days.
20 μL of Promega Celltiter-Glo reagent was added to each well of the microplate, and then the luminescence signal was stabilized by oscillating at room temperature for 10 min. Then PekinElmer Envision multi-label analyzer was used to read.
Finally, GraphPad Prism software was used to calculate the IC50 value of the compound and the fitting curve was drawn.
Anti-proliferative activity of the compounds of the present invention against NCI-H358(KRAS^G12C mutation) and A549(KRAS^G12S mutation) cells were shown in Table 1.

SMILES | IC50 ([2]; Homo sapiens, NCI-H358, 120 h) | IC50 ([3]; Homo sapiens, 120 h) | other results
C=C(F)C(=O)N1CCN(c2nc(OC[C@@H]3CCCN3C)nc3c2CCN(c2cccc4cccc(Cl)c24)C3)CC1CC#N (stereo partly drawn) [Control compound, reference compound] |  |  | T1/2 [1]: 2.47 h; Tmax [1]: 4.0 h; AUC ([1]; rat, plasma, po): 830 ng·h/mL; Cmax ([1]; rat, plasma, po): 123 ng/mL
C=CC(=O)N1CCN(c2nc(OC[C@H](C(C)C)N(C)C3CCC3)nc3c2CCN(c2cccc4cccc(Cl)c24)C3)CC1CC#N (stereo partly drawn) [Example 9, 2-(1-acroloyl-4-(7-(8-chloronaphthalen-1-yl)-2-((S)-2-(cyclobutyl(methyl)amino)-3-methylbutyloxy)-5,6,7,8-tetrahydropyrido[3,4-d]pyrimidin-4-yl)piperazin-2-yl) acetonitrile] | 160 nM | 17.7 µM | 
C=CC(=O)N1CCN(c2nc(OCCN(CC(F)(F)F)C3CCC3)nc3c2CCN(c2cccc4cccc(Cl)c24)C3)CC1CC#N (stereo not drawn) [Example 10, 2-(1-acroloyl-4-(7-(8-chloronaphthalen-1-yl)-2-(2-(cyclobutyl(2,2,2-trifluoroethyl)amino)ethoxy)-5,6,7,8-tetrahydropyrido[3,4-d]pyrimidin-4-yl)piperazin-2-yl) acetonitrile] | 6500 nM | 17.4 µM | 
C=C(F)C(=O)N1CCN(c2nc(OCCN(C)C3CCC3)nc3c2CCN(c2cccc4cccc(Cl)c24)C3)CC1CC#N (stereo not drawn) [Example 11, 2-(4-(7-(8-chloronaphthalen-1-yl)-2-(2-(cyclobutyl(methyl)amino)ethoxy)-5,6,7,8-tetrahydropyrido[3,4-d]pyrimidin-4-yl)-1-(2-fluoroacroloyl)piperazin-2-yl) acetonitrile] | 110 nM | 3.2 µM | 
C=C(F)C(=O)N1CCN(c2nc(OC[C@H](C)N(C)C3CCC3)nc3c2CCN(c2cccc4cccc(Cl)c24)C3)CC1CC#N (stereo partly drawn) [Example 12] | 140 nM | 2.3 µM | 
C=CC(=O)N1CCN(c2nc(O[C@@H]3CCC[C@@H]3N(C)C)nc3c2CCN(c2cccc4cccc(Cl)c24)C3)CC1CC#N (stereo partly drawn) [Example 15, 2-(1-acroloyl-4-(7-(8-chloronaphthalen-1-yl)-2-(((cis)-2-(dimethylamino)cyclopentyl)oxy)-5,6,7,8-tetrahydropyrido[3,4-d]pyrimidin-4-yl)piperazin-2-yl) acetonitrile] | 90 nM | 13.5 µM | 
C=CC(=O)N1CCN(c2nc(OCC3(CN(C)C)COC3)nc3c2CCN(c2cccc4cccc(Cl)c24)C3)CC1CC#N (stereo not drawn) [Example 19, 2-(1-acroloyl-4-(7-(8-chloronaphthalen-1-yl)-2-((3-((dimethylamino)methyl)oxetan-3-yl)methoxyl)-5,6,7,8-tetrahydropyrido[3,4-d]pyrimidin-4-yl)piperazin-2-yl) acetonitrile] |  |  | IC50 [2]: 4.6 nM; IC50 [3]: 8.9 µM
C=CC(=O)N1CCN(c2nc(OCC3(COC)CC3)nc3c2CCN(c2cccc4cccc(Cl)c24)C3)CC1CC#N (stereo not drawn) [Example 20, 2-(1-acroloyl-4-(7-(8-chloronaphthalen-1-yl)-2-((1-(methoxymethyl)cyclopropyl)methoxyl)-5,6,7,8-tetrahydropyrido[3,4-d]pyrimidin-4-yl)piperazin-2-yl) acetonitrile] | 870 nM | 7.7 µM | 
C=CC(=O)N1CCN(c2nc(OCCN(C)C3CCC3)nc3c2CCN(c2cccc4ccc(F)c(C)c24)C3)CC1CC#N (stereo not drawn) [Example 21, 2-(1-acroloyl-4-(2-(2-(cyclobutyl(methyl)amino)ethyoxyl)-7-(7-fluoro-8-methylnaphthalen-1-yl)-5,6,7,8-tetrahydropyrido[3,4-d]pyrimidin-4-yl)piperazin-2-yl) acetonitrile] | 27 nM | 7.8 µM | 
C=C(F)C(=O)N1CCN(c2nc(OCCN(C)C3CCC3)nc3c2CCN(c2cccc4ccc(F)c(C)c24)C3)CC1CC#N (stereo not drawn) [Example 22, 2-(4-(2-(2-(cyclobutyl(methyl)amino)ethyoxyl)-7-(7-fluoro-8-methylnaphthalen-1-yl)-5,6,7,8-tetrahydropyrido[3,4-d]pyrimidin-4-yl)-1-(2-fluoroacroloyl)piperazin-2-yl) acetonitrile] | 91 nM | 2.2 µM | 
C=CC(=O)N1CCN(c2nc(OCCN(C)C3CC3)nc3c2CCN(c2cccc4cccc(C)c24)C3)CC1CC#N (stereo not drawn) [Example 70, 2-(1-acroloyl-4-(2-(2-((cyclopropyl)(methyl)amino)ethoxy)-7-(8-methylnaphthalen-1-yl)-5,6,7,8-tetrahydropyrido[3,4-d]pyrimidin-4-yl)piperazin-2-yl) acetonitrile] | 170 nM | 11.5 µM | 
C=CC(=O)N1CCN(c2nc(OC[C@H](C)N(C)C3CC3)nc3c2CCN(c2cccc4cccc(C)c24)C3)CC1CC#N (stereo partly drawn) [Example 71, 2-(1-acroloyl-4-(2-((S)-2-(cyclopropyl(methyl)amino)propoxy)-7-(8-methylnaphthalen-1-yl)-5,6,7,8-tetrahydropyrido[3,4-d]pyrimidin-4-yl)piperazin-2-yl) acetonitrile] | 150 nM | 11.5 µM | 
C=CC(=O)N1CCN(c2nc(OC[C@@H](C)N(C)C3CC3)nc3c2CCN(c2cccc4cccc(C)c24)C3)CC1CC#N (stereo partly drawn) [Example 72, 2-(1-acroloyl-4-(2-((R)-2-(cyclopropyl(methyl)amino)propoxy)-7-(8-methylnaphthalen-1-yl)-5,6,7,8-tetrahydropyrido[3,4-d]pyrimidin-4-yl)piperazin-2-yl) acetonitrile] | 180 nM | 10.6 µM | 
C=CC(=O)N1CCN(c2nc(OCCN(C)CC3CC3)nc3c2CCN(c2cccc4cccc(C)c24)C3)CC1CC#N (stereo not drawn) [Example 73] | 60 nM | 3.7 µM | 
C=CC(=O)N1CCN(c2nc(OC[C@H](C)N(C)CC3CC3)nc3c2CCN(c2cccc4cccc(C)c24)C3)CC1CC#N (stereo partly drawn) [Example 74] | 80 nM | 2.6 µM | 
C=CC(=O)N1CCN(c2nc(OC[C@@H](C)N(C)CC3CC3)nc3c2CCN(c2cccc4cccc(C)c24)C3)CC1CC#N (stereo partly drawn) [Example 75] | 90 nM | 2.8 µM | 
C=CC(=O)N1CCN(c2nc(O[C@@H](C)CN(C)CC3CC3)nc3c2CCN(c2cccc4cccc(C)c24)C3)CC1CC#N (stereo partly drawn) [Example 76, 2-(1-acroloyl-4-(2-(((S)-1-((cyclopropylmethyl)(methyl)amino)propan-2-yl)oxy)-7-(8-methylnaphthalen-1-yl)-5,6,7,8-tetrahydropyrido[3,4-d]pyrimidin-4-yl)piperazin-2-yl) acetonitrile] | 860 nM | 3.5 µM | 
C=CC(=O)N1CCN(c2nc(O[C@H](C)CN(C)CC3CC3)nc3c2CCN(c2cccc4cccc(C)c24)C3)CC1CC#N (stereo partly drawn) [Example 77, 2-(1-acroloyl-4-(2-(((R)-1-((cyclopropylmethyl)(methyl)amino)propan-2-yl)oxy)-7-(8-methylnaphthalen-1-yl)-5,6,7,8-tetrahydropyrido[3,4-d]pyrimidin-4-yl)piperazin-2-yl) acetonitrile] | 1800 nM | 2.7 µM | 
C=CC(=O)N1CCN(c2nc(OCCN(C)[C@@H](C)C3CC3)nc3c2CCN(c2cccc4cccc(C)c24)C3)CC1CC#N (stereo partly drawn) [Example 78] | 50 nM | 2.8 µM | 
C=CC(=O)N1CCN(c2nc(OCCN(C)[C@H](C)C3CC3)nc3c2CCN(c2cccc4cccc(C)c24)C3)CC1CC#N (stereo partly drawn) [Example 79, 2-(1-acroloyl-4-(2-(2-(((R)-1-cyclopropylmethyl)(methyl)amino)ethoxy)-7-(8-methylnaphthalen-1-yl)-5,6,7,8-tetrahydropyrido[3,4-d]pyrimidin-4-yl)piperazin-2-yl) acetonitrile] | 40 nM | 3.1 µM | 
C=CC(=O)N1CCN(c2nc(OCCN(C)C3CCC3)nc3c2CCN(c2cccc4cccc(C)c24)C3)CC1CC#N (stereo not drawn) [Example 81, 2-(1-acroloyl-4-(2-(2-((cyclobutyl)(methyl)amino)ethoxy)-7-(8-methylnaphthalen-1-yl)-5,6,7,8-tetrahydropyrido[3,4-d]pyrimidin-4-yl)piperazin-2-yl) acetonitrile] | 40 nM | 7.5 µM | 
C=CC(=O)N1CCN(c2nc(OCCN(C)CC3CCC3)nc3c2CCN(c2cccc4cccc(C)c24)C3)CC1CC#N (stereo not drawn) [Example 82, 2-(1-acroloyl-4-(2-(2-((cyclobutylmethyl)(methyl)amino)ethoxy)-7-(8-methylnaphthalen-1-yl)-5,6,7,8-tetrahydropyrido[3,4-d]pyrimidin-4-yl)piperazin-2-yl) acetonitrile] | 160 nM | 6.6 µM | 
C=CC(=O)N1CCN(c2nc(OCCOC3CC3)nc3c2CCN(c2cccc4cccc(C)c24)C3)CC1CC#N (stereo not drawn) [Example 93, 2-(1-acroloyl-4-(2-(2-cyclopropoxyethyoxy)-7-(8-methylnaphthalen-1-yl)-5,6,7,8-tetrahydropyrido[3,4-d]pyrimidin-4-yl)piperazin-2-yl) acetonitrile] | 310 nM | 7.8 µM | 
